Assays:
[1] = Population PK model of miglustat, oral dosing in Gaa knockout mice; assay type: in vivo, mouse; settings: typical value
Method: A population PK model of miglustat is constructed based on oral dosing in Gaa knockout (KO) mice. The model has a residual additive error of 0.475 ng/m L.

[2] = Previous studies in non-human primates (exposure); settings: in vivo, po, 175 mg/kg
[3] = in vivo; settings: both, Cambodian origin, cynomolgus monkey, in vivo
Method: Animals were acclimated to the study room for 18 (females) to 19 (males) days. On the final day of acclimation, animals weighed between 2.243 kg and 5.413 kg and were 2 to 3 years of age.
ATB200 is formulated in 25 mM sodium phosphate buffer, pH 6 containing 2.92 mg/mL sodium chloride, 20 mg/mL mannitol, and 0.5 mg/mL polysorbate 80 (formulation buffer). Test article (ATB200 or miglustat) and control article/vehicle (formulation buffer) were administered once every other week for 13 weeks, starting on Day 1 and ending on Day 85. ATB200 and the control article/vehicle were administered by 2 hour (±10 minute) intravenous (IV) infusion at 0 mg/kg (Group 1, control article), 50 mg/kg (Group 2), or 100 mg/kg (Groups 3 and 5). Miglustat was administered nasogastrically in sterile water for injection, USP, at 25 mg/kg (Group 2) or 175 mg/kg (Groups 3 and 4), 30 minutes (±2 minutes) prior to the start of the infusion for ATB200, when given in combination. The dosing volume across all groups was 10 mL/kg.
Parameters assessed during the in-life phase of the study included body weights, food consumption, clinical observations, detailed clinical observations, physical examinations, electrocardiography, ophthalmic assessments, clinical pathology (hematology, coagulation, serum chemistry), anti-drug antibody (ADA) assessment, neutralizing ADA assessment, urinalysis, and plasma toxicokinetics (TK) for miglustat and ATB200 activity and total protein. Terminal necropsy of animals was performed on Day 99 (14 days after the last dose administration). At necropsy, gross observations and organ weights were recorded, and tissues were collected for microscopic examination.

CCCCN1C[C@H](O)[C@@H](O)[C@H](O)[C@H]1CO [miglustat, (2R,3R,4R,5S)-1-butyl-2-(hydroxymethyl)piperidine-3,4,5-triol]
Central volume of distribution (Vc) [1]: 4.55 mL
Peripheral clearance (CLd) [1]: 4.57 mL/h
Peripheral volume of distribution (V2) [1]: 19.6 mL
Rate constant of absorption (Ka) [1]: 2.09 h⁻¹
Systemic clearance (CL) [1]: 43.3 mL/h
AUC [2]: 196 µg·h/mL
NOAEL at 13 weeks [3]: 175 mg/kg

— patent US20250381254A1, “Augmented Acid Alpha-Glucosidase For The Treatment Of Pompe Disease” (Amicus Therapeutics, Inc., priority 2015, published 2025)
